Patent EP0394928A1, “Topical antiviral pharmaceutical composition containing a nonionic surfactant” (SYNTEX (U.S.A.) INC., priority 1989, dated 1990)
Marks after values point to notes of the source that are not given here.

Experiments:
HSV-1 (F strain) [1] = assay: Guinea pig model of cutaneous HSV-1 infection, acyclovir creams (Example 9); type: in vivo, female Hartley guinea pigs; details: 5% ACV in 5% Nonoxynol-9 cream; once a day for 3 days starting 24 hours post-infection; Day 4; treated vs nontreated side
Description: In vivo testing for antiviral activity against cutaneous HSV-1 infections is also done using a guinea pig model, for example, by the procedures described by Hubler, W.R., Jr., Troy, D.F., Troll, D., and Jarratt, M., "Guinea Pig Model For Cutaneous Herpes Simplex Virus Infection", J. Invest. Dermatol., 62:92-95 (1974). This procedure is a modification of a procedure initially described by Hubler, W.R., Jr., et al., "Guinea Pig Model Eor Cutaneous Herpes Simplex Virus Infection", J. Invest. Dermatol., 62:92-95 (1974). The backs of female Hartley guinea pigs were shaved, depilated and inoculated with HSV-1 (F strain) in four different areas by multiple shallow punctures. Two quadrants were on the left side and two on the right side of the dorsum. The animals were divided into 3 treatment groups of 6 animals each. The treatment groups were topically administered a cream on one side of the back once a day for 3 days starting 24 hours post-infection, the other side of back was not treated. The creams contained as an active ingredient either 5% acyclovir in a polyethylene glycol (PEG) based cream (Zovirax ®), 5% acyclovir in a 5% Nonoxynol-9 (N-9) cream or 5% Nonoxynol-9 cream only (placebo control). The numbers of lesions which developed on either the treated or untreated side of the back were counted on Day 4 after infection. […]

[2] = Partition coefficient (octanol / water); type: physicochemical; details: for logP: ratio of concentrations in nonpolar medium, e.g. octanol, and aqueous medium, e.g. water
Description: The modes of action reported for each compound are likewise distinct. Azone has been reported as a penetration enhancer, i.e., when it is co-administered with another agent, Azone will facilitate the movement of the agent into the cell by increasing lipid fluidity (Lambert, et al., (1989), Pharm Res., 6(9):798-803). The enhancement effect has been reported to be more pronounced with lipophilic agents and with agents with higher partition coefficients. A partition coefficient is the ratio of the concentrations of a given compound in a nonpolar medium, e.g., octanol and in an aqueous medium, e.g., water (ACV and DHPG have partition coefficients of less than 0.1, whereas Ada-DHPG has a partition coefficient of about 2.8 x10⁵).

HSV-1 (F strain) [3] = assay: Guinea pig model of cutaneous HSV-1 infection, dose response tests in Azone / Nonoxynol-9 creams (Example 8); type: in vivo, female Hartley guinea pigs; details: once a day 3 days from 24 hours post-infection, Day 4
Description: (§1) In vivo testing for antiviral activity against cutaneous HSV-1 infections is also done using a guinea pig model, for example, by the procedures described by Hubler, W.R., Jr., Troy, D.F., Troll, D., and Jarratt, M., "Guinea Pig Model For Cutaneous Herpes Simplex Virus Infection", J. Invest. Dermatol., 62:92-95 (1974).
(§2) This procedure is a modification of a procedure initially described by Hubler, W.R., Jr., et al., "Guinea Pig Model For Cutaneous Herpes Simplex Virus Infection", J. Invest. Dermatol., 62:92-95 (1974).
The backs of female Hartley guinea pigs were shaved, depilated and inoculated with HSV-1 (F strain) in four different areas by multiple shallow punctures. Two quadrants were on the left side and two on the right side of the dorsum. The guinea pigs were divided into treatment groups of usually 6 each. Treatment was topically administered once a day for 3 days starting 24 hours post-infection on one side of the back. The other side of the back was not treated. Different treatment groups were administered creams which contained 9-[1,3-di(1-adamantyl-carboxy)-2-propoxymethyl]guanine (Ada-DHPG), (10%, 5%, 2.5%, 1% or 0%) with 5% propylene glycol (PG), or 5% propylene glycol (PG); and either Nonoxynol-9 (5% and 2.5%) or Azone (10% and 5%). Additionally, other groups were administered creams containing Ada-DHPG (10%, 5%, 2.5%, 1% or 0%) with no propylene glycol and either 10% Azone or 5% Nonoxynol-9. Seven dose response tests were run in all. In each test the numbers of lesions were counted on Day 4 after infection. The treated side versus the nontreated side for the various groups were compared by a percent reduction in number of lesions which developed.

HSV-1 (F strain) [4] = assay: Guinea pig model of cutaneous HSV-1 infection, DHPG versus Ada-DHPG in PG, Azone or Nonoxynol-9 creams (Example 10); type: in vivo, female Hartley guinea pigs; details: 0.5 ml/animal once a day for 3 days, lesions counted Day 4
Description: as §1, §2
The backs of female Hartley guinea pigs were shaved, depilated and inoculated with HSV-1 (F strain) in four different areas by multiple shallow punctures. Two quadrants were on the left side and two on the right side of the dorsum. The animals were divided into groups and topically administered a cream on one side of the back (0.5 ml/animal) once a day for 3 days starting […] post infection. The other side of the back was not treated. The cream contained either a formulation of 9-(1,3-dihydroxy-2-propoxymethyl)guanine (DHPG) with Azone, Nonoxynol-9 (N-9), or propylene glycol (PG); or 9-[1,3-di(1-adamantylcarboxy)-2-propoxymethyl]guanine (Ada-DHPG) with Azone, Nonoxynol-9 (N-9), or propylene glycol (PG). Placebo groups were treated with only Azone, Nonoxynol-9 (N-9) or propylene glycol (PG). Both DHPG and Ada-DHPG were run in each test with a single formulation. A total of 4 tests were run. In each study, the number of lesions which developed were counted on Day 4 after infection. The treated side versus nontreated side for the various groups were compared by a percent reduction in the number of lesions which developed.

In the case of Nc1nc2c(ncn2COCCO)c(=O)[nH]1 [ACV, 9-(2-hydroxyethoxymethyl)guanine], the “Percent Reduction in numbers of lesions” value (HSV-1 (F strain) [1]) is reported as 69* Percent and the partition coefficient ([2]; octanol/water) is reported as “less than 0.1”.
In the case of Nc1nc2c(ncn2COC(COC(=O)C23CC4CC(CC(C4)C2)C3)COC(=O)C23CC4CC(CC(C4)C2)C3)c(=O)[nH]1 (stereo not shown) [Ada-DHPG, 9-[1,3-di(1-adamantylcarboxy)-2-propoxymethyl]guanine], the “Percent Reduction in number of lesions” value (HSV-1 (F strain) [3]; Test 1: 1% Ada-DHPG, 5% PG (no surfactant added) cream) is reported as 12%, the “Percent Reduction in number of lesions” value (HSV-1 (F strain) [3]; Test 1: 2.5% Ada-DHPG, 5% PG (no surfactant added) cream) is reported as 16% and the “Percent Reduction in number of lesions” value (HSV-1 (F strain) [3]; Test 1: 5% Ada-DHPG, 5% PG (no surfactant added) cream) is reported as 3%. For the same compound, the “Percent Reduction in number of lesions” value (HSV-1 (F strain) [3]; Test 1: 10% Ada-DHPG, 5% PG (no surfactant added) cream) was 37* Percent, the “Percent Reduction in number of lesions” value (HSV-1 (F strain) [3]; Test 2: 1% Ada-DHPG, 5% Azone cream (with 5% PG)) was -6% and the “Percent Reduction in number of lesions” value (HSV-1 (F strain) [3]; Test 2: 2.5% Ada-DHPG, 5% Azone cream (with 5% PG)) was 14%. The “Percent Reduction in number of lesions” value (HSV-1 (F strain) [3]; Test 2: 5% Ada-DHPG, 5% Azone cream (with 5% PG)) was 14%, the “Percent Reduction in number of lesions” value (HSV-1 (F strain) [3]; Test 2: 10% Ada-DHPG, 5% Azone cream (with 5% PG)) was 29% and the “Percent Reduction in number of lesions” value (HSV-1 (F strain) [3]; Test 3: 1% Ada-DHPG, 10% Azone cream (with 5% PG)) was 43* Percent. For the same compound, the “Percent Reduction in number of lesions” value (HSV-1 (F strain) [3]; Test 3: 2.5% Ada-DHPG, 10% Azone cream (with 5% PG)) was 35* Percent, the “Percent Reduction in number of lesions” value (HSV-1 (F strain) [3]; Test 3: 5% Ada-DHPG, 10% Azone cream (with 5% PG)) was 73* Percent and the “Percent Reduction in number of lesions” value (HSV-1 (F strain) [3]; Test 3: 10% Ada-DHPG, 10% Azone cream (with 5% PG)) was 78* Percent. The “Percent Reduction in number of lesions” value (HSV-1 (F strain) [3]; Test 4: 1% Ada-DHPG, 10% Azone (no PG) cream) was 27%, the “Percent Reduction in number of lesions” value (HSV-1 (F strain) [3]; Test 4: 2.5% Ada-DHPG, 10% Azone (no PG) cream) was 18% and the “Percent Reduction in number of lesions” value (HSV-1 (F strain) [3]; Test 4: 5% Ada-DHPG, 10% Azone (no PG) cream) was 27%. For the same compound, the “Percent Reduction in number of lesions” value (HSV-1 (F strain) [3]; Test 4: 10% Ada-DHPG, 10% Azone (no PG) cream) was 47* Percent, the “Percent Reduction in number of lesions” value (HSV-1 (F strain) [3]; Test 5: 1% Ada-DHPG, 2.5% Nonoxynol-9 cream (with 5% PG)) was 33% and the “Percent Reduction in number of lesions” value (HSV-1 (F strain) [3]; Test 5: 2.5% Ada-DHPG, 2.5% Nonoxynol-9 cream (with 5% PG)) was 52* Percent. The “Percent Reduction in number of lesions” value (HSV-1 (F strain) [3]; Test 5: 5% Ada-DHPG, 2.5% Nonoxynol-9 cream (with 5% PG)) was 52* Percent, the “Percent Reduction in number of lesions” value (HSV-1 (F strain) [3]; Test 5: 10% Ada-DHPG, 2.5% Nonoxynol-9 cream (with 5% PG)) was 64* Percent and the “Percent Reduction in number of lesions” value (HSV-1 (F strain) [3]; Test 6: 1% Ada-DHPG, 5% Nonoxynol-9 cream (with 5% PG)) was 59* Percent. For the same compound, the “Percent Reduction in number of lesions” value (HSV-1 (F strain) [3]; Test 6: 2.5% Ada-DHPG, 5% Nonoxynol-9 cream (with 5% PG)) was 65* Percent, the “Percent Reduction in number of lesions” value (HSV-1 (F strain) [3]; Test 6: 5% Ada-DHPG, 5% Nonoxynol-9 cream (with 5% PG)) was 92* Percent and the “Percent Reduction in number of lesions” value (HSV-1 (F strain) [3]; Test 6: 10% Ada-DHPG, 5% Nonoxynol-9 cream (with 5% PG)) was 88* Percent. For the same compound, the “Percent Reduction in number of lesions” value (HSV-1 (F strain) [3]; Test 7: 1% Ada-DHPG, 5% Nonoxynol-9 (no PG) cream) was 57* Percent, the “Percent Reduction in number of lesions” value (HSV-1 (F strain) [3]; Test 7: 2.5% Ada-DHPG, 5% Nonoxynol-9 (no PG) cream) was 68* Percent and the “Percent Reduction in number of lesions” value (HSV-1 (F strain) [3]; Test 7: 5% Ada-DHPG, 5% Nonoxynol-9 (no PG) cream) was 90* Percent. The “Percent Reduction in number of lesions” value (HSV-1 (F strain) [3]; Test 7: 10% Ada-DHPG, 5% Nonoxynol-9 (no PG) cream) was 82* Percent, the “Percent Reduction in the number of lesions” value (HSV-1 (F strain) [4]; Test 1: 10% Ada-DHPG in 25% PG cream) was 51* Percent and the “Percent Reduction in the number of lesions” value (HSV-1 (F strain) [4]; Test 2: 10% Ada-DHPG in 5% PG cream) was 42* Percent. The “Percent Reduction in the number of lesions” value (HSV-1 (F strain) [4]; Test 3: 10% Ada-DHPG in 10% Azone cream) was 76* Percent, the “Percent Reduction in the number of lesions” value (HSV-1 (F strain) [4]; Test 4: 10% Ada-DHPG in 5% Nonoxynol-9 cream) was 77* Percent and the logP [2] was roughly 5.45.
In the case of Nc1nc2c(ncn2COC(CO)CO)c(=O)[nH]1 [DHPG, 9-(1,3-dihydroxy-2-propoxymethyl)guanine, reference compound], the “Percent Reduction in the number of lesions” value (HSV-1 (F strain) [4]; Test 1: 4.4% DHPG in 25% PG cream) is reported as 75* Percent, the “Percent Reduction in the number of lesions” value (HSV-1 (F strain) [4]; Test 2: 4.4% DHPG in 5% PG cream) is reported as 68* Percent and the “Percent Reduction in the number of lesions” value (HSV-1 (F strain) [4]; Test 3: 4.4% DHPG in 10% Azone cream) is reported as 100* Percent. The “Percent Reduction in the number of lesions” value (HSV-1 (F strain) [4]; Test 4: 4.4% DHPG in 5% Nonoxynol-9 cream) was 94* Percent and the logP [2] was less than -1.
